Results as given in patent US11667629B2, “Isoxazole derivative, preparation method therefor, and use thereof” (SICHUAN KELUN-BIOTECH BIOPHARMACEUTICAL CO., LTD., priority 2017, dated 2023).

How the values were obtained:
FXR [1] = target: T1, FXR (Homo sapiens, UniProt Q96RI1); assay: Bile acid receptor FXR coactivator binding assay (LanthaScreen TR-FRET); assay type: biochemical; conditions: for EC50: TR-FRET coactivator assay, four-parameter fit, read-out: EC50 of the compounds on FXR; for Emax: read-out: Relative activation effect
T1 construct: purchased Invitrogen
Procedure: The Invitrogen⋅LanthaScreen™ TR-FRET Farnesoid X Receptor Coactivator Assay kit was employed to determine the activation effect of the compounds on FXR.
After the receptor was incubated with the test compound at various concentrations at room temperature, the fluorescent-labeled coactivator short peptides and terbium-labeled antibody were added, and the FRET signal was detected after the reaction was complete at room temperature. The group without the receptor protein was employed as a blank, the activation effect (EC50) and maximum activation effect signal value (Emax) of the test compounds on FXR were calculated according to the four-parameter fitting equation: y=E min+(E max−E min)/(1+(x/EC50)^(−Hillslope))

FXR [2] = target: T2, FXR (Homo sapiens, UniProt Q96RI1); assay: Luciferase reporter gene assay (HEK293 cotransfected with FXR and human BSEP luciferase reporter); assay type: cell-based; conditions: for EC50: HEK293, 18 hours incubation; for Emax: HEK293, maximum activation effect, relative signal percentage, blank well = 100%
T2 construct: expressed in transfected cells; host or cells: HEK293
T2 sequence (Q96RI1 1-486): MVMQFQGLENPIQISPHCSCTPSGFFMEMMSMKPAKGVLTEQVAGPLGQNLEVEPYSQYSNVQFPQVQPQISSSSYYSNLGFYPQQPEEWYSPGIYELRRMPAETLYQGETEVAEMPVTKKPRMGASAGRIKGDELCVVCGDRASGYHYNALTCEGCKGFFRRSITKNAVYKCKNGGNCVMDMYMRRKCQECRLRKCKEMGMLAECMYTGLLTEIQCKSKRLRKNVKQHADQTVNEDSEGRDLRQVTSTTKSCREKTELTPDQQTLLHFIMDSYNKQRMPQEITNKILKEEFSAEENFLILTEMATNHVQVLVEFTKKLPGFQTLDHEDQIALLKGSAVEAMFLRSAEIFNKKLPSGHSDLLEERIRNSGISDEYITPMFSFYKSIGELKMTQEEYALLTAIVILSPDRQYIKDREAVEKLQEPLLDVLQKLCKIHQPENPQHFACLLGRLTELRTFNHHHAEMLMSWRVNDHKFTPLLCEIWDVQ
Procedure: Human embryonic kidney cells HEK293 were cultured in a DMEM medium containing 10% FBS. Plasmids were cotransfected to allow the cells to have over expression of FXR and human BSEP luciferase reporter genes. The transfected cells were digested, resuspended, counted, and plated in a multi-well plate. 10 μL of the test compound at various concentrations was added to the multi-well plate to result in final concentrations of 64 μM, 16 μM, 4 μM, 1 μM, 0.25 μM, 0.0625 μM, 0.0156 μM, 0.0039 μM, 0.000975 μM, 0.000244 μM, 0 μM, and the final concentration of DMSO was 0.5%. After the test compound was incubated with the cells for 18 hours, the Brigh-Glo™ detection reagent was added, and the chemical light unit value (RLU) was detected by a multifunctional automatic microplate reader. Taking the signal value of the blank well (without the test compound) as 100%, the relative signal percentage (%) at each concentration of the test compound was calculated. The SigmaPlot 10 software was employed to fit the EC50 and the maximum activation effect Emax (relative signal percentage) of the test compounds using a four-parameter model.

[3] = Pharmacokinetics (PK) and liver tissue distribution in rats; assay type: in vivo, rat
Procedure: The test compound was administered to male SD rats by intravenous (IV) and by gavage (PO), and the pharmacokinetics and liver tissue distribution characteristics of the test compound were evaluated. The doses of the IV and PO administration were respectively 1 mg/kg and 5 mg/kg. The vehicle for IV was 5% DMSO:5% Solutol:90% physiological saline, and the vehicle for PO was 0.5% MC. Blood and liver were collected at various time points after the IV and PO administration. The blood was treated with EDTA. K2 for anticoagulation, and was centrifuged to obtain a plasma sample; the liver was homogenized and stored at −80° C. The plasma and liver samples were analyzed by LC-MS/MS after being subjected to protein precipitation.
By employing the WinNonlin 6.3 software, the pharmacokinetic parameters were calculated according to a non-compartment model.

[4] = Liver microsomal stability test, rat; assay type: in vitro ADME; conditions: liver microsomes; rat liver microsome, 1 μM compound, 0.5 mg/mL, NADPH
Procedure: (§1) The test compound (50 μL) was mixed with the liver microsome (100 μL) of each species, after pre-incubation at 37° C. for 5 minutes, NADPH (50 μL) was added, and the incubation was performed for 0, 30, and 60 minutes. The incubation concentrations of the test compound, NADPH, and liver microsomal enzyme were 1 μM, 1 mM, and 0.5 mg/mL, respectively. Ice-cold acetonitrile (200 μL) was added to stop the reaction, and an appropriate volume of the internal standard was then added. After the vortex and centrifugation process, the supernatant was obtained and detected.
(§2) LC-MS/MS, wherein the mass spectrometer was API 5500, and the liquid chromatograph was Shimadzu LC-30AD system. The chromatographic column was Hypersil GOLD C18, 1.9 μm particle size, 50×2.1 mm; mobile phase A was water+0.1% formic acid, phase B was acetonitrile; flow rate was 0.55 mL/min, and column temperature was 40° C. The ion source was an ESI source positive ion mode, and the scanning mode is multiple reaction monitoring (MRM).
(§3) By determining the concentrations of the samples at different incubation time, the rate constant was obtained by plotting “Ln (amount of the remained drug %)” versus “incubation time”. The half-life and liver clearance rate of the drug were then calculated, and were used to evaluate the metabolic stability of the drug in liver microsome.

[5] = Liver microsomal stability test, mouse; assay type: in vitro ADME; conditions: liver microsomes; mouse liver microsome, 1 μM compound, 0.5 mg/mL, NADPH
Procedure: as §1, §2, §3

[6] = Liver microsomal stability test, dog; assay type: in vitro ADME; conditions: liver microsomes; dog liver microsome, 1 μM compound, 0.5 mg/mL, NADPH
Procedure: as §1, §2, §3

[7] = Liver microsomal stability test, human; assay type: in vitro ADME
Procedure: as §1, §2, §3

[8] = IV, 1 mg/kg, male SD rats, plasma
[9] = PO, 5 mg/kg, male SD rats, blood
[10] = PO, 5 mg/kg, male SD rats, liver

Compound | EC50 (FXR [1]) [nM] | Emax (FXR [1]) [%] | EC50 (FXR [2]) [nM] | Emax (FXR [2]) [%] | AUClast [3, 8] [ng·h/mL] | Cmax [3, 8] [ng/mL] | AUClast (blood) [3, 9] [ng·h/mL] | Cmax (blood) [3, 9] [ng/mL] | AUClast (liver) [3, 10] [ng·h/g] | Cmax (liver) [3, 10] [ng/g] | liver enrichment ([3]; PO, 5 mg/kg, rats, liver versus blood exposure) | CLint scaled at 1 μM [4] [mL/min/kg] | half-life at 1 μM [4] [h] | CLint scaled at 1 μM [5] [mL/min/kg] | half-life at 1 μM [5] [h] | CLint scaled at 1 μM [6] [mL/min/kg] | half-life at 1 μM [6] [h] | clearance rate in human liver microsome [7] [mL/min/kg]
O=C(O)c1ccc(-c2csc(N3CCC(OCc4c(-c5c(Cl)cccc5Cl)noc4C4CC4)CC3)n2)cc1 [Compound C2, 4-(2-(4-((5-cyclopropyl-3-(2,6-dichlorophenyl)isoxazol-4-yl)methoxy)piperidin-1-yl)thiazol-4-yl)benzoic acid] | 12 ± 4 | 101 | 20 ± 10 | 248 | 2409 ± 108 | 4343 ± 172 | 1177 ± 304 | 252 ± 30 | 14941 ± 4276 | 3367 ± 830 | significant liver enrichment effect |  |  |  |  |  |  | 
Cn1nc(-c2ccc(N3CCC(OCc4c(-c5c(Cl)cccc5Cl)noc4C4CC4)CC3)cc2)cc1C(=O)O [Compound C4, 3-(4-(4-((5-cyclopropyl-3-(2,6-dichlorophenyl)isoxazol-4-yl)methoxy)piperidin-1-yl)phenyl)-1-methyl-1H-pyrazole-5-carboxylic acid] | 10 ± 1 | 102 | 40 ± 10 | 255 |  |  |  |  |  |  |  |  |  |  |  |  |  | 
O=C(O)c1ccc(-c2csc(N3[C@@H]4CC[C@H]3C[C@@H](OCc3c(-c5ccccc5OC(F)(F)F)noc3C3CC3)C4)n2)s1 [Compound C35, 5-(2-((1R,3r,5S)-3-((5-cyclopropyl-3-(2-(trifluoromethoxy)phenyl)isoxazol-4-yl)methoxy)-8-azabicyclo[3.2.1]octan-8-yl)thiazol-4-yl)thiophene-2-carboxylic acid] | 13 ± 3 | 152 | 91 ± 38 | 378 |  |  |  |  |  |  |  |  |  |  |  |  |  | 
Cc1cc(C(=O)O)ccc1-c1csc(N2[C@@H]3CC[C@H]2C[C@@H](OCc2c(-c4c(Cl)cccc4Cl)noc2C2CC2)C3)n1 [Compound C37, 4-(2-((1R,3r,5S)-3-((5-cyclopropyl-3-(2,6-dichlorophenyl)isoxazol-4-yl)methoxy)-8-azabicyclo[3.2.1]octan-8-yl)thiazol-4-yl)-3-methylbenzoic acid] | 15 ± 1 | 139 | 6 ± 2 | 411 |  |  |  |  |  |  |  |  |  |  |  |  |  | 
O=C(O)c1ccc(-c2csc(N3[C@@H]4CC[C@H]3C[C@@H](OCc3c(-c5ccccc5OC(F)(F)F)noc3C3CC3)C4)n2)cc1F [Compound C44, 4-(2-((1R,3r,5S)-3-((5-cyclopropyl-3-(2-(trifluoromethoxy)phenyl)isoxazol-4-yl)methoxy)-8-azabicyclo[3.2.1]octan-8-yl)thiazol-4-yl)-2-fluorobenzoic acid] | 22 ± 5 | 137 | 21 ± 6 | 322 |  |  |  |  |  |  |  |  |  |  |  |  |  | 
O=C(O)c1ccc(-c2csc(N3[C@@H]4CC[C@H]3C[C@@H](OCc3c(-c5ccccc5OC(F)(F)F)noc3C3CC3)C4)n2)cc1C(F)(F)F [Compound C46, 4-(2-((1R,3r,5S)-3-((5-cyclopropyl-3-(2-(trifluoromethoxy)phenyl)isoxazol-4-yl)methoxy)-8-azabicyclo[3.2.1]octan-8-yl)thiazol-4-yl)-2-(trifluoromethyl)benzoic acid] | 2 ± 1 | 196 | 14 ± 5 | 301 |  |  |  |  |  |  |  | 0.96 | 16.1 | 15.3 | 2.5 | 8.03 | 4.32 | 14.9
